# Assay results: patent US10934310B2, “Inhibitors of Bruton's tyrosine kinase and method of their use” (JANSSEN PHARMACEUTICA NV, priority 2015, dated 2021)
# Target: unphosphorylated-BTK kinase domain (UP-BTK), GST-tagged human BTK (389-659aa) (Homo sapiens (Human), UniProt Q06187)
# Assay: BTK Kinase Lanthascreen Binding Assay
# Settings: compound, 50 nM Tracer 236, 2 nM anti-GST antibody, 60 minutes; pIC50 = negative log of the IC50 in molar
# Procedure: BTK Kinase Lanthascreen Binding Assay:
# A BTK kinase lanthascreen binding assay monitors compound binding to unphosphorylated-BTK kinase domain (UP-BTK), by competing with a fluorescent labeled tracer. […] Data were analyzed using Xlfit™ version 5.3 from ID Business Solutions (Guildford), Microsoft Excel add-in. pIC50 refers to the negative log of the IC50 in molar.
# Chain of unphosphorylated-BTK kinase domain (UP-BTK), GST-tagged human BTK (389-659aa) (Q06187 389-659): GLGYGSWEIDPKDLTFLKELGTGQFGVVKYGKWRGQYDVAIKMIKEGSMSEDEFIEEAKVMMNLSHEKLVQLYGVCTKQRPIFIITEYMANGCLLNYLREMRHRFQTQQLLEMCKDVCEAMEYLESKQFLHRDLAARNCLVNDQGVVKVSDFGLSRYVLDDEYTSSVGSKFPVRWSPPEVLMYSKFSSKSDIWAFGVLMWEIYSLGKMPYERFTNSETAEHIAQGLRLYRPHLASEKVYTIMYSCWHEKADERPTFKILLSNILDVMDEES
row,SMILES,BTK_I_binding pIC50
1,"Cc1cc(Oc2ccccc2)ccc1N1C(=O)Nc2c(C(=O)N[C@@H]3CC[C@@H](NC(=O)CN(C)C)C3)sc3nccc1c23 [Example 217, N-((1R,3R)-3-(2-(Dimethylamino)acetamido)cyclopentyl)-5-(2-methyl-4-phenoxyphenyl)-4-oxo-4,5-dihydro-3H-1-thia-3,5,8-triazaacenaphthylene-2-carboxamide]",7.44
2,"C=CC(=O)N[C@@H]1CCCC[C@H]1NC(=O)c1sc2nccc3c2c1NC(=O)N3c1ccc(Oc2ccccc2)cn1 [Example 218, N-((1R,2R)-2-Acrylamidocyclohexyl)-4-oxo-5-(5-phenoxypyridin-2-yl)-4,5-dihydro-3H-1-thia-3,5,8-triazaacenaphthylene-2-carboxamide]",6.76
3,"C=CC(=O)N[C@H]1CCC[C@H]1NC(=O)c1sc2nccc3c2c1NC(=O)N3c1ccc(Oc2ccccn2)cc1C [Example 220, N-((1R,2S)-2-acrylamidocyclopentyl)-5-(2-methyl-4-(pyridin-2-yloxy)phenyl)-4-oxo-4,5-dihydro-3H-1-thia-3,5,8-triazaacenaphthylene-2-carboxamide]",8.16
4,"C=CC(=O)N[C@H]1CCCC[C@H]1NC(=O)c1sc2nccc3c2c1NC(=O)N3c1cnc(OC2CCCC2)cc1C [Example 223, N-((1R,2S)-2-Acrylamidocyclohexyl)-5-(6-(cyclopentyloxy)-4-methylpyridin-3-yl)-4-oxo-4,5-dihydro-3H-1-thia-3,5,8-triazaacenaphthylene-2-carboxamide]",7.81
5,"C=CC(=O)N[C@H]1CCC[C@H]1NC(=O)c1sc2nccc3c2c1NC(=O)N3c1ccc(Oc2ncccn2)cc1C [Example 224, N-((1R,2S)-2-acrylamidocyclopentyl)-5-(2-methyl-4-(pyrimidin-2-yloxy)phenyl)-4-oxo-4,5-dihydro-3H-1-thia-3,5,8-triazaacenaphthylene-2-carboxamide]",7.46
6,"C=CC(=O)N[C@H]1CCCC[C@H]1NC(=O)c1sc2nccc3c2c1NC(=O)N3c1cnc(OCC(C)C)cc1C [Example 225, N-((1R,2S)-2-Acrylamidocyclohexyl)-5-(6-isobutoxy-4-methylpyridin-3-yl)-4-oxo-4,5-dihydro-3H-1-thia-3,5,8-triazaacenaphthylene-2-carboxamide]",7.66
7,"C=CC(=O)N[C@@H]1CCCC[C@H]1NC(=O)c1sc2nccc3c2c1NC(=O)N3c1ccnc(-c2ccccc2)c1 [Example 227, N-((1R,2R)-2-Acrylamidocyclohexyl)-4-oxo-5-(2-phenylpyridin-4-yl)-4,5-dihydro-3H-1-thia-3,5,8-triazaacenaphthylene-2-carboxamide]",6.76
8,"CC(=O)N[C@@H]1CC[C@@H](NC(=O)c2sc3nccc4c3c2NC(=O)N4c2ccc(Oc3ccccc3)cc2C)C1 [Example 228, N-((1R,3R)-3-Acetamidocyclopentyl)-5-(2-methyl-4-phenoxyphenyl)-4-oxo-4,5-dihydro-3H-1-thia-3,5,8-triazaacenaphthylene-2-carboxamide]",7.34
9,"CNCC(=O)N[C@@H]1CC[C@@H](NC(=O)c2sc3nccc4c3c2NC(=O)N4c2ccc(Oc3ccccc3)cc2C)C1 [Example 229, 5-(2-Methyl-4-phenoxyphenyl)-N-((1R,3R)-3-(2-(methylamino)acetamido)cyclopentyl)-4-oxo-4,5-dihydro-3H-1-thia-3,5,8-triazaacenaphthylene-2-carboxamide]",7.29

# Continued, values first:
row,BTK_I_binding pIC50,SMILES
1,7.05,"C=CC(=O)N[C@@H]1CCC[C@@H](NC(=O)c2sc3nccc4c3c2NC(=O)N4c2ccnc(-c3ccccc3)c2)C1 [Example 232, N-((1R,3R)-3-Acrylamidocyclohexyl)-4-oxo-5-(2-phenylpyridin-4-yl)-4,5-dihydro-3H-1-thia-3,5,8-triazaacenaphthylene-2-carboxamide]"
2,6.76,"C=CC(=O)N[C@H]1CCC[C@H]1NC(=O)c1sc2nccc3c2c1NC(=O)N3c1ccc(OC2CCOCC2)cc1 [Example 234, N-((1R,2S)-2-Acrylamidocyclopentyl)-4-oxo-5-(4-((tetrahydro-2H-pyran-4-yl)oxy)phenyl)-4,5-dihydro-3H-1-thia-3,5,8-triazaacenaphthylene-2-carboxamide]"
3,7.44,"Cc1cc(Oc2ccccc2)ccc1N1C(=O)Nc2c(C(=O)N[C@@H]3CC[C@@H](NC(=O)CN)C3)sc3nccc1c23 [Example 235, N-((1R,3R)-3-(2-Aminoacetamido)cyclopentyl)-5-(2-methyl-4-phenoxyphenyl)-4-oxo-4,5-dihydro-3H-1-thia-3,5,8-triazaacenaphthylene-2-carboxamide]"
4,7.00,"Cc1cc(Oc2ccccc2)ccc1N1C(=O)Nc2c(C(=O)N[C@@H]3CC[C@@H](N)C3)sc3nccc1c23 [Example 236, N-((1R,3R)-3-Aminocyclopentyl)-5-(2-methyl-4-phenoxyphenyl)-4-oxo-4,5-dihydro-3H-1-thia-3,5,8-triazaacenaphthylene-2-carboxamide]"
5,6.47,"C=CC(=O)N[C@@H]1CCCC[C@H]1NC(=O)c1sc2nccc3c2c1NC(=O)N3c1ccc(Oc2ccccc2)nc1 [Example 239, N-((1R,2R)-2-Acrylamidocyclohexyl)-4-oxo-5-(6-phenoxypyridin-3-yl)-4,5-dihydro-3H-1-thia-3,5,8-triazaacenaphthylene-2-carboxamide]"
6,6.73,"Cc1cc(Oc2ccccc2)ccc1N1C(=O)Nc2c(C(=O)N[C@H]3CC[C@H](NC(=O)CN(C)C)C3)sc3nccc1c23 [Example 245, N-((1S,3S)-3-(2-(Dimethylamino)acetamido)cyclopentyl)-5-(2-methyl-4-phenoxyphenyl)-4-oxo-4,5-dihydro-3H-1-thia-3,5,8-triazaacenaphthylene-2-carboxamide]"
7,6.84,"CNCC(=O)N[C@H]1CC[C@H](NC(=O)c2sc3nccc4c3c2NC(=O)N4c2ccc(Oc3ccccc3)cc2C)C1 [Example 246, 5-(2-Methyl-4-phenoxyphenyl)-N-((1S,3S)-3-(2-(methylamino)acetamido)cyclopentyl)-4-oxo-4,5-dihydro-3H-1-thia-3,5,8-triazaacenaphthylene-2-carboxamide]"
8,6.98,"CN(C)C/C=C/C(=O)N[C@@H]1CC[C@H](NC(=O)c2sc3nccc4c3c2NC(=O)N4c2ccc(Oc3ccccc3)c(Cl)c2)C1 [Example 248, 5-(3-Chloro-4-phenoxyphenyl)-N-((1S,3R)-3-((E)-4-(dimethylamino)but-2-enamido)cyclopentyl)-4-oxo-4,5-dihydro-3H-1-thia-3,5,8-triazaacenaphthylene-2-carboxamide]"
9,6.90,"N[C@H]1CCC[C@H]1NC(=O)c1sc2nccc3c2c1NC(=O)N3c1cccc(-c2ccccc2)c1 [Example 249, 5-([1,1′-Biphenyl]-3-yl)-N-((1R,2S)-2-aminocyclopentyl)-4-oxo-4,5-dihydro-3H-1-thia-3,5,8-triazaacenaphthylene-2-carboxamide]"
10,6.47,"N[C@H]1CCCC[C@H]1NC(=O)c1sc2nccc3c2c1NC(=O)N3c1ccc(Oc2ccccc2)nc1 [Example 257, N-((1R,2S)-2-Aminocyclohexyl)-4-oxo-5-(6-phenoxypyridin-3-yl)-4,5-dihydro-3H-1-thia-3,5,8-triazaacenaphthylene-2-carboxamide]"
